IC50 data for 21 compounds are collected here from patent US9732070B2, “Protein kinase C inhibitors and uses thereof” (Rigel Pharmaceuticals, Inc., priority 2009, dated 2017).

In one experiment the test system is Human primary T cells. Kind of experiment: IL-2 ELISA, human primary T cell, anti-CD3+CD28 stimulation. Format: cell-based. The following applies: IL-2 quantified by ELISA; human primary T cells stimulated with αCD3 and αCD28, 24 hours. The protocol: Human primary T cell isolation and culture: Human primary T cells were prepared as follows. Whole blood was obtained from a healthy volunteer, mixed 1:1 with PBS, layered on to Ficoll Hypaque (Amersham Pharmacia Biotech, Piscataway, N.J., Catalog #17-1440-03) in 2:1 blood/PBS:ficoll ratio and centrifuged for 30 minutes at 4° C. at 1750 rpm. The cells at the serum: ficoll interface were recovered and washed twice with 5 volumes of PBS. These freshly isolated human peripheral blood mononuclear cells were cultured in Yssel's medium containing 40 U/mL IL2 in a flask pre-coated with 1 μg/mL αCD3 and 5 μg/mL αCD28 (Anti-Human CD3, BD Pharmingen Catalog #555336, Anti-Human CD28, Beckman Coulter Catalog #IM1376). The cells were stimulated for 3-4 days, then transferred to a fresh flask and maintained in RPMI (RPMI-1640 with L-Glutamine; Mediatech, Inc., Herndon Va., cat. #10-040-CM) with 10% FBS and 40 U/mL IL-2. The primary T-cells were then washed twice with PBS to remove the IL-2.
Primary T cell stimulation and IL2 ELISA: Human primary T cells (100,000 cells per well) were pre-incubated with or without test compound in Yssel's medium for 1 hour at 37° C. Cells were then stimulated by transferring them to round-bottom 96-well plates pre-coated with 1 μg/ml αCD3 and 5 μg/ml αCD28. For counter assay, cells were instead stimulated by adding 8× stock solutions of PMA and ionomycin in Yssels (for final concentrations of 0.5 ng/ml PMA and 0.1 uM ionomycin, both from Calbiochem). Cells were incubated at 37° C. for 24 hours before 100 μL supernatants were harvested for quantification of IL-2 by ELISA using Human IL-2 Duoset ELISA Kit from R and D Systems, Cat. # DY202E.
In turn, `CN1C(C)(C)CC(Nc2nc(Nc3cc(F)cc(-n4nnn(C)c4=O)c3)ncc2F)CC1(C)C` [I-22, 1-(3-(4-(1,2,2,6,6-pentamethylpiperidin-4-ylamion)-5fluoropyrimidin-2-ylamino)-5-fluorophenyl)-4-methyl-1H-tetrazol-5(4H)-one] yielded a half-inhibitory concentration (IC50) of less than 0.5 µM.
On to `CC(C)Oc1c(-n2nnn(C)c2=O)cc(Nc2ncc(F)c(NC3CC(C)(C)N(C)C(C)(C)C3)n2)cc1C(F)(F)F` [I-52, N2-(4-isopropoxy-3-(4-methyl-4,5-dihysro-5-oxo-1H-tetrazol-1-yl)-5-trifluoromethylphenyl)-5-fluoro-N4-(1,2,2,6,6-pentamethylpiperidin-4-yl)pyrimidine-2,4-diamine], for which the concentration for half-maximal inhibition (IC50) is less than 0.5 µM.

Staying with this experiment, now noted: T-cell; IL-2 quantified by ELISA; human primary T cells stimulated with αCD3 and αCD28, 24 hours.
Compound `CN1C(C)(C)CC(Nc2nc(Nc3ccc(OC4COC4)c(-n4nnn(C)c4=O)c3)ncc2F)CC1(C)C` [I-20, 1-(5-(4-(1,2,2,6,6-pentamethylpiperidin-4-ylamino)-5fluoropyrimidine-2-ylamino)-2-(oxetan-3-yloxy)phenyl)-4-methyl-1H-tetrazol-5(4H)-one] showed an IC50 of less than 0.5 µM.
In turn, `COC(=O)c1cc(Nc2ncc(F)c(NC3CC(C)(C)N(C)C(C)(C)C3)n2)cc(-n2nnn(C)c2=O)c1C` [I-63, Methyl 5-((5-fluoro-4-((1,2,2,6,6-pentamethylpiperidin-4-yl)amino)-2-pyrimidinyl)amino)-2-methyl-3-(4-methyl-4,5-dihysro-5-oxo-1H-tetrazol-1-yl)benzoate] had an IC50 of less than 0.5 µM.
`CN1C(C)(C)CC(Nc2nc(Nc3cc(-n4nnn(C)c4=O)c(C4CC4)c(C(F)(F)F)c3)ncc2F)CC1(C)C` [I-40, N2-{4-cyclopropyl-5-trifluoromethyl-[3-(4-methyl)-1,2,3,4-tetrazol-5-one-1-yl]}phenyl-5-fluoro-N4-(1,2,2,6,6-pentamethylpiperidin-4-yl)-2,4-pyrimidinediamine] came in with an IC50 of less than 0.5 µM.
`COc1cc(Nc2ncc(F)c(NC3CC(C)(C)N(C)C(C)(C)C3)n2)cc(-n2nnn(C)c2=O)c1` [I-31, N2-{5-methody-[3-(4-methyl)-1,2,3,4-tetrazol-5-one-1-yl]}phenyl-5-fluoro-N4-(1,2,2,6,6-pentamethylpiperidin-4-yl)-2,4-pyrimidinediamine]: the IC50 was less than 0.5 µM.
The same measure, in the same setting: to `Cn1nnn(-c2cc(Nc3ncc(F)c(NC4CC(C)(C)NC(C)(C)C4)n3)cc(C(F)(F)F)c2C2CC2)c1=O` [I-39, N2-{4-cyclopropyl-5-trifluoromethyl-[3-(4-methyl)-1,2,3,4-tetrazol-5-one-1-yl]}phenyl-5-fluoro-N4-(2,2,6,6-tetramethylpiperidin-4-yl)2,5-pyrimidinediamine] belongs less than 0.5 µM; to `COC(=O)c1cc(Nc2ncc(F)c(NC3CC(C)(C)NC(C)(C)C3)n2)cc(-n2nnn(C)c2=O)c1C` [I-60, Methyl 5-((5-fluoro-4-((2,2,6,6-tetramethylpiperidin-4-yl)amino)-2-pyrimidinyl)amino)-2-methyl-3-(4-methyl-4,5-dihysro-5-oxo-1H-tetrazol-1-yl)benzoate], less than 0.5 µM.
On the same count and under the same terms, to `Cn1nnn(-c2cc(Nc3ncc(F)c(NC4CC(C)(C)NC(C)(C)C4)n3)ccc2OC2COC2)c1=O` [I-21, 1-(5-(4-(2,2,6,6-gtetramethylpiperidin-4-ylamino)-5-fluoropyrimidin-2-ylamino)-2-(oxetan-3-yloxy)phenyl)-4-methyl-1H-tetrazol-5(4H)-one] belongs less than 0.5 µM; to `Cn1nnn(-c2cc(Nc3ncc(F)c(NC4CC(C)(C)NC(C)(C)C4)n3)ccc2OC(C)(C)C(F)(F)F)c1=O` [I-19, 1-(2-(1,1,1-trifluoro-2-methylpropan-2-yloxy)-5-(4-(2,2,6,6-tetramethylpiperidin-4-ylamino)-5-fluoropyrimidin-2-ylamino)phenyl)-4-methyl-1H-tetrazol-5(4H)-one], less than 0.5 µM; to `CN1C(C)(C)CC(Nc2nc(Nc3ccc(F)c(-n4nn[nH]c4=O)c3)ncc2F)CC1(C)C` [I-1, 5-fluoro-n2-{4-fluoro-[3-(4-h)-1,2,3,4-tetrazol-5-one-1-yl]}phenyl-n4-(1,2,2,6,6-pentamethylpiperidin-4-yl)-2,4-pyrimidinediamine], 3 to 25 µM.
The same measure, in the same setting: to `Cn1nnn(-c2cc(Nc3ncc(C#N)c(NC4CC(C)(C)NC(C)(C)C4)n3)cc(C3CC3)c2F)c1=O` [I-44, 5-cyano-N2-{5-cyclopropyl-4-fluoro-[3-(4-methyl)-1,2,3,4-tetrazol-5-one-1-yl]}phenyl-N4-(2,2,6,6-tetramethylpiperidin-4-yl)-2,4-pyrimidinediamine] belongs less than 0.5 µM; to `Cn1nnn(-c2cc(C#N)cc(Nc3ncc(F)c(NC4CC(C)(C)NC(C)(C)C4)n3)c2)c1=O` [I-50, N2-(5-cyano-3-(4-methyl-4,5-dihysro-5-oxo-1H-tetrazol-1-yl)phenyl)-5-fluoro-N4-(2,2,6,6-tetramethylpiperidin-4-yl)pyrimidine-2,4-diamine], less than 0.5 µM; to `CN1C(C)(C)CC(Nc2nc(Nc3ccc(F)c(-n4nnn(C)c4=O)c3)ncc2F)CC1(C)C` [I-3, 5-fluoro-n2-{4-fluoro-[3-(4-methyl)-1,2,3,4-tetrazol-5-one-1-yl]}phenyl-n4-(1,2,2,6,6-pentamethylpiperidin-4-yl)-2,4-pyrimidinediamine], less than 0.5 µM.
`CN1C(C)(C)CC(Nc2nc(Nc3cc(C#N)cc(-n4nnn(C)c4=O)c3)ncc2F)CC1(C)C` [I-49] yielded an IC50 of less than 0.5 µM.
Still for that read-out and setting: to `Cc1c(C(=O)O)cc(Nc2ncc(F)c(NC3CC(C)(C)N(C)C(C)(C)C3)n2)cc1-n1nnn(C)c1=O` [I-65, 5-((5-fluoro-4-((1,2,2,6,6-pentamethylpiperidin-4-yl)amino)-2-pyrimidinyl)amino)-2-methyl-3-(4-methyl-4,5-dihydro-5-oxo-1H-tetrazol-1-yl)benzoic Acid] belongs 3 to 25 µM; to `Cn1nnn(-c2cc(F)cc(Nc3ncc(F)c(NC4CC(C)(C)NC(C)(C)C4)n3)c2)c1=O` [I-23, 1-(3-(4-(2,2,6,6-tetramethylpiperidin-4-ylamino)-5-fluoropyrimidin-2-ylamino)-5-fluorophenyl)-4-methyl-1H-tetrazol-5(4H)-one], less than 0.5 µM; to `CN1C(C)(C)CC(Nc2nc(Nc3cccc(-n4nnn(C)c4=O)c3)ncc2F)CC1(C)C` [I-12, 5-fluoro-n2-[3-(4-methyl)-1,2,3,4-tetrazol-5-one-1-yl]phenyl-n4-(1,2,2,6,6-pentamethylpiperidin-4-yl)-2,4-pyrimidinediamine], 0.51 to 2.99 µM.
For `CN1C(C)(C)CC(Nc2nc(Nc3cc(-n4nnn(C)c4=O)cc(C(F)(F)F)c3)ncc2F)CC1(C)C` [I-47, N2-(3-(4-methyl-4,5-dihydro-5-oxo-1H-tetrazol-1-yl)-5-trifluoromethylphenyl)-5-fluoro-N4-(1,2,2,6,6-pentamethylpiperidin-4-yl)pyrimidine-2,4-diamine], the 50% inhibitory concentration (IC50) was less than 0.5 µM.
Still for that read-out and setting: to `Cn1nnn(-c2cc(Nc3ncc(F)c(NC4CC(C)(C)NC(C)(C)C4)n3)c(F)cc2C2CC2)c1=O` [I-14] belongs less than 0.5 µM; to `CN1C(C)(C)CC(Nc2nc(Nc3cc(C4CC4)cc(-n4nnn(C)c4=O)c3)ncc2F)CC1(C)C` [I-36, N2-{5-cyclopropyl-[3-(4-methyl)-1,2,3,4-tetrazol-5-one-1-yl]}phenyl-5-fluoro-N4-(1,2,2,6,6-pentamethylpiperidin-4-yl)-2,4-pyrimidinediamine], less than 0.5 µM.

Broadly, the IC50 is the midpoint of a concentration-inhibition curve. A lower IC50 goes with greater potency in that assay.
